Assay results reported in BindingDB's records for patent US11858959 (Ardelyx, 2024).

Molecular target: T1, 11-beta-hydroxysteroid dehydrogenase type 2 (Homo sapiens, UniProt P80365)
T1 sequence (P80365 whole entry): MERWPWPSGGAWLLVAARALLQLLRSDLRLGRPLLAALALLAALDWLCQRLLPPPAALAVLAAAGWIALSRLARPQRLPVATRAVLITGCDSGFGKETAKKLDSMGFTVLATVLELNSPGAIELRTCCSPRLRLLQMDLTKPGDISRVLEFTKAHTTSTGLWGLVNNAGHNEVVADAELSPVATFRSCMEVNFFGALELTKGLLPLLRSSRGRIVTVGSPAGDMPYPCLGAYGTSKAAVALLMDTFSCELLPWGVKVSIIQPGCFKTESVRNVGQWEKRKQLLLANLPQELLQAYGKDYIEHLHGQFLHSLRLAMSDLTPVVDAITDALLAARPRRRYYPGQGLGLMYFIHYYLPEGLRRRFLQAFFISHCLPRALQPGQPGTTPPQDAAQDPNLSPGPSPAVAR
Test: HSD2 Activity
Experimental: Human descending colon epithelial stem cells were cultured as 3D organoids in accordance with Sato et al Gastroenterology. 2011 November; 141(5): 1762-72. Organoids were dissociated using TrypLE Express (life technologies) and plated on 96-well transwells (corning) in supplemented basal media (SBM-advanced DMEM/F12 containing 10 mM HEPES, 1:100 Glutamax, 1:100 penicillin/streptomycin, 1:100N2, 1:50 B27, 1 mM N-acetylcysteine, 10 nM [Leu15]-gastrin I) containing 100 ng/mL Wnt3A (W), 50 ng/mL EGF (E), 100 ng/mL Noggin (N), 500 ng/mL RSpondinl (R), 500 nM A83-01 (S) and 2.5 uM thiazovivin (T). Cultures were differentiated using SBM containing ENRA and 30 nM aldosterone on day 3, and cultures were used for assay on day 6 or 7. Compounds were diluted in DMSO and serial dilutions prepared by titrating in DMSO. Compounds were then diluted into DMEM/F12. Transwell plates containing descending colon cultures were washed twice with DMEM/F12 and compound was added to the apical compartment. Cells were incubated with test compound for 30 minutes at 37 C., 5% CO2 to equilibrate across the cell membrane. […] Cortisol levels were measured using a cortisol HTRF assay kit as described by the manufacturer (Cisbio). Concentration-response curves were then plotted and IC50 (and pIC50) values were determined using least squares non-linear regression.

Work on `Cc1oc(=O)oc1COC(=O)[C@]1(C)[C@@H](OC(=O)CN(C)C)CC[C@@]2(C)[C@H]1CC[C@]1(C)[C@@H]2C(=O)C=C2[C@@H]3C[C@@](C)(C(=O)O)CC[C@]3(C)CC[C@]21C` [US11858959, Compound 290-2] yielded an IC50 of 251 nM.
